This note sets out measurements from PubChem BioAssay (NCI).

Test in all cases: NCI anticancer screen, dose series, 48 h
Test [1] has as its system RXF 393 renal.
The test system of test [2] is OVCAR-5 ovarian.
Test [3] deals with NCI-H522 lung.
The subject of test [4] is EKVX NSCLC.
Test [5] concerns NCI-H23 lung.
The test system of test [6] is MCF7 breast.
In test [7] the test system is OVCAR-8 ovarian.
The subject of test [8] is BT-549 breast.
The subject of test [9] is UO-31 renal.
The subject of test [10] is CAKI-1 renal.

“And” between values parts separate entries of the source, which are not always exact repeats. Identical values can stand only once.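 In this assay, cells in 96-well plates receive the compound at five concentrations for 48 hours. Endpoints are linearly interpolated between the surrounding concentrations. GI50: concentration for 50% inhibition of growth. TGI denotes the concentration required for complete inhibition of growth.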 Some results are limits rather than exact numbers.

In the case of `CC1=C(CCCOC(=O)[C@H](N)CC(C)C)C2=C(C)C3(CC3)[C@@](C)(O)C(=O)C2=C1`, the GI50 was 0.492 µM in [1]; 1.94 µM in test [2]; 2.69 µM in [3]; 2.77 µM in test [4]; 0.367 µM in [5]; 2.73 µM in test [6]. The GI50 in test [7] was 2.13 µM; in test [8], 1.31 µM; in [9] it was 1.42 µM. For the same compound, the TGI in test [1] was 1.29 µM; in test [2], 11.8 µM; in [3], 11.1 µM; in test [4], 8.66 µM; in [5], 3.23 µM; in [6], > 87.1 µM. Besides, the TGI in [7] was > 33.3 µM; in test [8] it was 4.48 µM; in test [9], 4.32 µM.
With `CN(C)CCNC(=O)c1cc2c3cc(Cl)ccc3[nH]c2c2ncccc12`, the GI50 in test [1] was 1.74 µM; in test [2], 11.9 µM; in [3], 2.26 µM; in test [4], 2.8 µM; in [10] it was 3.52 µM; in test [5], 6.31 µM. Also, the GI50 was 1.8 µM in test [6], 2.57 µM in test [7], 2.26 µM in test [8] and 1.1 µM in test [9]. Besides, the TGI in [1] amounted to 4.28 µM; in test [2] it was 27.4 µM; in [3], 7.11 µM; in test [4] it was 12.7 µM; in test [10], 19.6 µM; in [5], 23.4 µM. Besides, the TGI in [6] turned out to be 4.78 µM; in test [7], 12.7 µM; in [8], 7.98 µM; in test [9], 2.49 µM.
Take `Cn1ncnc1[C@@H]1c2n[nH]c(=O)c3cc(F)cc(c23)N[C@H]1c1ccc(F)cc1`: the GI50 is > 100 µM in test [1]; > 100 µM in [2]; > 100 µM in test [3]; 91.5 µM in test [10]; > 100 µM in test [5]; > 100 µM in test [6]. Also, the GI50 in test [7] is > 100 µM; in test [8], > 100 µM; in [9] it was 83.3 µM. In addition, the TGI in test [1], in test [2], in [3], in [10], in [5] and in [6] was > 100 µM in each case. Moreover, the TGI in test [7], in test [8] and in [9] was > 100 µM each time.
As to `Cc1c(Cl)cccc1C(=O)Nc1nc2c(s1)CN(C(=O)Nc1cccc(C(F)(F)F)c1)CC2`, the GI50 in [1] is 0.106 µM; in test [2], 0.603 µM; in test [3], 0.109 µM; in [4], 0.346 µM; in [10], 0.216 µM; in test [5] it was 0.234 µM. The GI50 in test [6] was 0.145 µM; in test [7] it was 0.277 µM; in test [8] it was 0.547 µM; in test [9], 0.508 µM. Besides, the TGI in [1] was 0.349 µM; in test [2] it was > 50 µM; in test [4], > 50 µM; in [10] it was > 50 µM; in [5] it was > 50 µM; in [6] it was > 50 µM. Also, the TGI in test [7], in test [8] and in test [9] was > 50 µM throughout.
Regarding `CC(C)(C)CC(C)(C)c1ccc(OCCO)cc1`, the GI50 is 8.58 µg/mL in test [1]; 11.9 µg/mL in [2]; 1.21 µg/mL in [3]; 1.34 µg/mL in test [4]; 0.678 µg/mL in test [10]; 1.33 µg/mL in test [5]. Moreover, the GI50 in test [6] is 4.01 µg/mL; in [7] it was 3.31 µg/mL; in [8], 2.49 µg/mL. Also, the TGI in [1] was 18.1 µg/mL; in test [2], 27.5 µg/mL; in test [3], 11.1 µg/mL; in test [4], 30.1 µg/mL; in [10], 8.37 µg/mL; in test [5], 20.9 µg/mL. In addition, the TGI in [6] is 17 µg/mL; in test [7], > 75 µg/mL; in test [8], 11.9 µg/mL.
With `O=C1NC(=O)C(c2c[nH]c3ccccc23)=C1c1c[nH]c2ccccc12`, the GI50 in test [1] is 4.57 µM; in [2] it was > 25 µM; in [3] it was 8.11 µM; in [10] it was 7.37 µM; in test [5], 14.7 µM; in test [6], 9.32 µM. Also, the GI50 in [7] is 15.8 µM; in test [8] it was 10.3 µM; in test [9], 3.08 µM. For the same compound, the TGI was 24.3 µM in [1]; > 25 µM in test [2]; > 25 µM in [3]; > 25 µM in test [10]; > 25 µM in test [5]; > 25 µM in [6]. The TGI in [7], in test [8] and in test [9] was > 25 µM each time.
In the case of `CC(C)=CCc1cc2c(cc1O)C1=C(C(=O)C3=C(NCCS3(=O)=O)C1=O)C(C=C(C)C)O2` (stereo not given), the GI50 is 7.66 µM in test [1]; > 16.7 µM in test [2]; 2.93 µM in test [3]; 6.24 µM in test [4]; 5.8 µM in test [5]; 2.86 µM in test [6]. Besides, the GI50 in [7] was 4.75 µM; in test [8] it was 14.1 µM; in [9], 5.57 µM. Besides, the TGI in test [1] is > 16.7 µM; in test [2], > 16.7 µM; in test [3] it was 9.09 µM; in test [4] it was > 16.7 µM; in [5] it was > 16.7 µM; in test [6] it was 7.84 µM. In addition, the TGI in test [7], in test [8] and in test [9] was > 16.7 µM throughout.
Take `COc1ccc(-c2csc3c2-n2cccc2C3=O)cc1`: the GI50 in [2] is 0.0946 µM; in test [3], 0.00234 µM and 0.0218 µM; in test [4], 0.597 µM; in [10], 0.0528 µM; in [6], 0.0945 µM; in test [7] it was 0.068 µM. Further, the results for the GI50 in [8] and in test [9] were 0.0492 µM and 0.049 µM, respectively. Further, the TGI was > 100 µM in [2]; 0.00998 µM and 0.0802 µM in test [3]; > 81.4 µM in test [4]; > 100 µM in test [10]; > 100 µM in test [5]; > 41.6 µM in [6]. The TGI in [7] is > 100 µM; in test [9], > 44.2 µM.
In the case of `Cn1cc(C2=C(c3ccsc3)C(=O)NC2=O)c2ccccc21`, the GI50 in test [1] is 24.4 µM; in test [2], > 25 µM; in test [3], > 25 µM; in test [10], > 25 µM; in test [5], > 25 µM; in test [6], 1.58 µM. The GI50 in [7] is > 25 µM; in test [8], > 25 µM; in [9], 8.49 µM. Further, the TGI in test [1], in test [2], in [3], in test [10], in test [5] and in [6] was > 25 µM each time. Further, the TGI in test [7], in [8] and in test [9] was > 25 µM throughout.
In the case of `C=CC1(C)CCC2C(=CCC3C2(C)CC(O)C(O)C3(C)COC2OC(CO)C(O)C(O)C2O)C1` (stereo not given), the TGI in test [2], in [3], in test [4], in [10], in test [5] and in [6] was > 100 µM in each case. The TGI in test [7], in test [8] and in test [9] was > 100 µM each time.
With `N#CCCNc1nonc1-c1nc2ccccc2n1CC(=O)c1ccc(N)cc1`, the GI50 is 0.0129 µM in test [1]; 0.0593 µM in test [2]; < 0.01 µM in test [3]; 0.0701 µM in test [10]; 0.0312 µM in test [5]; < 0.019 µM in test [6]. Besides, the GI50 in [7] was 0.0354 µM; in test [8] it was 0.0289 µM; in test [9], 0.282 µM. For the same compound, the TGI in test [1] is > 100 µM; in [2] it was > 100 µM; in test [3], < 0.01 µM; in test [10], > 100 µM; in test [5], > 100 µM; in [6], > 100 µM. The TGI in [7] is > 100 µM; in test [8], 22.9 µM; in test [9] it was > 100 µM.
Turning to `C=CCc1cccc(C=O)c1O`, the GI50 in test [1] was 94 µM; in test [2] it was > 100 µM; in [3], > 100 µM; in test [10], > 100 µM; in [5], > 100 µM; in [6] it was 7.9 µM. Also, the GI50 is 39.5 µM in [7], 10.4 µM in test [8] and 70.1 µM in [9]. Moreover, the TGI in test [1], in test [2], in test [3], in test [10], in test [5] and in test [6] was > 100 µM in each case. Further, the TGI in [7], in [8] and in test [9] was > 100 µM each time.
Consider `O=C1C=C(Nc2ccccc2)c2ccccc2C1=O`, for which the GI50 is 2.53 µM in test [1]; 1.85 µM in [2]; 1.67 µM in [3]; 3.11 µM in test [10]; 1.98 µM in test [5]; 1.88 µM in [6]. For the same compound, the GI50 is 2.71 µM in [7], 1.73 µM in test [8] and 1.71 µM in test [9]. The TGI in test [1] came to 8.77 µM; in test [2] it was 3.33 µM; in test [3], 3.36 µM; in [10], 13.7 µM; in [5] it was 4.91 µM; in [6], 4.3 µM. The values for the TGI in [7], in test [8] and in test [9] were 12.8 µM, 3.16 µM and 4.48 µM, respectively.
For `CCOC(=O)c1noc2c1CCc1c-2cn(Cc2ccc(OC)cc2)c1-c1cc(OC)c(OC)c(OC)c1`, the GI50 is 2.17 µM in test [1]; 4.72 µM in test [2]; 0.369 µM in test [3]; 3.92 µM in test [4]; 3.04 µM in [5]; 0.348 µM in test [6]. The GI50 is 3.04 µM in test [7], 1.47 µM in test [8] and 3.44 µM in test [9]. Also, the TGI in test [1] is 45.6 µM; in [2], > 100 µM; in test [3], > 100 µM; in test [4], > 100 µM; in test [5], > 100 µM; in test [6], > 100 µM. The figures for the TGI in test [7], in test [8] and in test [9] were > 100 µM, 35.1 µM and > 100 µM, respectively.
For the compound `CCN1CCN(CCC(=O)Nc2cccc(-n3cc(-c4ccncc4)c(-c4ccc(Cl)c(OC)c4)n3)c2)CC1`, the GI50 is 0.244 µM in test [1]; 1.42 µM in test [2]; 0.275 µM in test [3]; 1.06 µM in test [4]; 1.04 µM in test [5]; 0.267 µM in test [6]. Also, the GI50 in test [7] was 1.26 µM; in [8], 1.38 µM; in [9], 0.922 µM. The TGI in test [1] worked out at 1.43 µM; in test [2], 4.84 µM; in [3], 1.19 µM; in test [4] it was 4.76 µM; in [5] it was 3.56 µM; in test [6] it was 1.45 µM. For the same compound, the TGI in test [7] worked out at 3.82 µM; in [8], 4.43 µM; in [9], 2.53 µM.
For the compound `COc1ccc(-c2nc3sc(-c4cc(OC)c(OC)c(OC)c4)nn3c2/C=C2/C(=O)Nc3ccc(F)cc32)cc1`, the GI50 in [1] is 3.96 µM; in [2], 6.14 µM; in [3] it was 5.44 µM; in [10], 4.48 µM; in test [5] it was 4.25 µM; in test [6], 1.66 µM. For the same compound, the GI50 was 5.34 µM in test [7], 14.9 µM in test [8] and 15 µM in [9]. Besides, the TGI in test [1] came to 18.7 µM; in [2], 21.7 µM; in [3] it was 18 µM; in test [10], 20 µM; in [5], 21.5 µM; in [6] it was 6.32 µM. Moreover, the values for the TGI in [7], in test [8] and in test [9] were > 100 µM, 74.6 µM and 29.7 µM, respectively.
